Experimental data published in publication PMC8800111 (The Journal of Biological Chemistry, 2021).

Columns and labels:
Format in all cases: cell-based
[1] = target: proteins of U3A human fibrosarcoma cells (4462 proteins detected) (Homo sapiens, UniProt Q9UIV1); conditions: protein CNOT7; U3A, 10 μM, 2 h
[2] = target: proteins of U3A human fibrosarcoma cells (4462 proteins detected) (Homo sapiens, UniProt P52823); conditions: protein STC1; U3A, 10 μM, 2 h
[3] = target: proteins of U3A human fibrosarcoma cells (4462 proteins detected) (Homo sapiens, UniProt Q9BZE1); conditions: protein MRPL37; U3A, 10 μM, 2 h
[4] = target: proteins of U3A human fibrosarcoma cells (4462 proteins detected) (Homo sapiens, UniProt P38919); conditions: protein EIF4A3; soluble abundance after heat, U3A cells
[5] = target: proteins of U3A human fibrosarcoma cells (4462 proteins detected) (Homo sapiens, UniProt P54709); conditions: protein ATP1B3; U3A, 10 μM, 2 h
[6] = target: proteins of U3A human fibrosarcoma cells (4462 proteins detected) (Homo sapiens, UniProt P35232); conditions: protein PHB; U3A cells
[7] = target: proteins of U3A human fibrosarcoma cells (4462 proteins detected) (Homo sapiens, UniProt Q9P032); conditions: protein NDUFAF4; U3A cells
[8] = target: proteins of U3A human fibrosarcoma cells (4462 proteins detected) (Homo sapiens, UniProt Q14669); conditions: protein TRIP12, U3A cells
[9] = target: proteins of U3A human fibrosarcoma cells (4462 proteins detected) (Homo sapiens, UniProt P27824); conditions: protein CANX; soluble abundance after heat, U3A cells
[10] = target: proteins of U3A human fibrosarcoma cells (4462 proteins detected) (Homo sapiens, UniProt P08758); conditions: protein ANXA5, U3A cells
[11] = target: proteins of U3A human fibrosarcoma cells (4462 proteins detected) (Homo sapiens, UniProt P05121); conditions: protein SERPINE1; U3A cells
[12] = target: proteins of U3A human fibrosarcoma cells (4462 proteins detected) (Homo sapiens, UniProt Q8WUA7); conditions: protein TBC1D22A; soluble abundance after heat, U3A cells
[13] = target: proteins of U3A human fibrosarcoma cells (4462 proteins detected) (Homo sapiens, UniProt Q16637); conditions: protein SMN1; SMN2; U3A, 10 μM, 2 h
[14] = target: proteins of U3A human fibrosarcoma cells (4462 proteins detected) (Homo sapiens, UniProt P08582); conditions: protein MFI2; U3A cells
[15] = target: proteins of U3A human fibrosarcoma cells (4462 proteins detected) (Homo sapiens, UniProt Q9C0E2); conditions: protein XPO4; soluble abundance after heat, U3A cells
[16] = target: proteins of U3A human fibrosarcoma cells (4462 proteins detected) (Homo sapiens, UniProt Q15397); conditions: protein KIAA0020; U3A cells
[17] = target: proteins of U3A human fibrosarcoma cells (4462 proteins detected) (Homo sapiens, UniProt O00764); conditions: protein PDXK, U3A cells
[18] = target: proteins of U3A human fibrosarcoma cells (4462 proteins detected) (Homo sapiens, UniProt O94880); conditions: protein PHF14; U3A, 10 μM, 2 h
[19] = target: proteins of U3A human fibrosarcoma cells (4462 proteins detected) (Homo sapiens, UniProt Q9UBV8); conditions: protein PEF1; U3A, 10 μM, 2 h
[20] = target: proteins of U3A human fibrosarcoma cells (4462 proteins detected) (Homo sapiens, UniProt P57772); conditions: protein EEFSEC, U3A cells
[21] = target: proteins of U3A human fibrosarcoma cells (4462 proteins detected) (Homo sapiens, UniProt Q9UJ68); conditions: protein MSRA, U3A cells
[22] = target: proteins of U3A human fibrosarcoma cells (4462 proteins detected) (Homo sapiens, UniProt O95297); conditions: protein MPZL1; U3A, 10 μM, 2 h
[23] = target: proteins of U3A human fibrosarcoma cells (4462 proteins detected) (Homo sapiens, UniProt O94915); conditions: protein FRYL; U3A, 10 μM, 2 h
[24] = target: proteins of U3A human fibrosarcoma cells (4462 proteins detected) (Homo sapiens, UniProt P22059); conditions: protein OSBP; soluble abundance after heat, U3A cells
[25] = target: proteins of U3A human fibrosarcoma cells (4462 proteins detected) (Homo sapiens, UniProt P04920); conditions: protein SLC4A2; U3A cells
[26] = target: proteins of U3A human fibrosarcoma cells (4462 proteins detected) (Homo sapiens, UniProt Q8IYB5); conditions: protein SMAP1; soluble abundance after heat, U3A cells
[27] = target: proteins of U3A human fibrosarcoma cells (4462 proteins detected) (Homo sapiens, UniProt P28290); conditions: protein SSFA2; U3A, 10 μM, 2 h
[28] = target: proteins of U3A human fibrosarcoma cells (4462 proteins detected) (Homo sapiens, UniProt Q9BZJ0); conditions: protein CRNKL1; U3A cells
[29] = target: proteins of U3A human fibrosarcoma cells (4462 proteins detected) (Homo sapiens, UniProt P40227); conditions: protein CCT6A; U3A cells

proteins of U3A human fibrosarcoma cells (4462 proteins detected) (Homo sapiens, UniProt Q9UBV8), sequence (Q9UBV8 whole entry): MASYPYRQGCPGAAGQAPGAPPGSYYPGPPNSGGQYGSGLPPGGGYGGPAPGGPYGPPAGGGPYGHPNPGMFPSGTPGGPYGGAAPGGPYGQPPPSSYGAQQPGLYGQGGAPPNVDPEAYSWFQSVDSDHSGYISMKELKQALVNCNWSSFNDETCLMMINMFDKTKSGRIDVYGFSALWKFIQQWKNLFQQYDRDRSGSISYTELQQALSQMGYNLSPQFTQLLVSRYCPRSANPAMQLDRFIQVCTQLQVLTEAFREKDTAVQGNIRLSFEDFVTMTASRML
proteins of U3A human fibrosarcoma cells (4462 proteins detected) (Homo sapiens, UniProt P05121), sequence (P05121 24-402): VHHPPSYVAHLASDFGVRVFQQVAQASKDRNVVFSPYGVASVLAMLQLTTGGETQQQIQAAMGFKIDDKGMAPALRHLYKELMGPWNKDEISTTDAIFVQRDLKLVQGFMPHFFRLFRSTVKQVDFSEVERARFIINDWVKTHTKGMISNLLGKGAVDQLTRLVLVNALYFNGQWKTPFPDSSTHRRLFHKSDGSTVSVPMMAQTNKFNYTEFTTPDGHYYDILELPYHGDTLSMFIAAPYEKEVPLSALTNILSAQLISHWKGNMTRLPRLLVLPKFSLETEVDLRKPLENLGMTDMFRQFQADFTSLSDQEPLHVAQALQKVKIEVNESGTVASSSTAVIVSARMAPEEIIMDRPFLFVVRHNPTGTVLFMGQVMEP
proteins of U3A human fibrosarcoma cells (4462 proteins detected) (Homo sapiens, UniProt Q9UJ68), sequence (Q9UJ68 24-235): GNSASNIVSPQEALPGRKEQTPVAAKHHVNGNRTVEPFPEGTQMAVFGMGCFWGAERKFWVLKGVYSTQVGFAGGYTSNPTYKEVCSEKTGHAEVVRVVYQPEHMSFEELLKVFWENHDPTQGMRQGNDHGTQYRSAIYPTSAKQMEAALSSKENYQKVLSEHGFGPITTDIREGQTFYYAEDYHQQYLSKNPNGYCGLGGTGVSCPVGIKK
proteins of U3A human fibrosarcoma cells (4462 proteins detected) (Homo sapiens, UniProt O95297), sequence (O95297 36-269): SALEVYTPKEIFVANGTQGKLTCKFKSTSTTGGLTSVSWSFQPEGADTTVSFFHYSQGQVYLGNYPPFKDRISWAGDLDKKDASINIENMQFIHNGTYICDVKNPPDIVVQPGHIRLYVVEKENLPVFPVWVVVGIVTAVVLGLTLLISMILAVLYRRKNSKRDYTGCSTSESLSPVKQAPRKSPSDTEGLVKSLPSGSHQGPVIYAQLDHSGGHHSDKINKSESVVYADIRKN
proteins of U3A human fibrosarcoma cells (4462 proteins detected) (Homo sapiens, UniProt Q15397), sequence (Q15397 whole entry): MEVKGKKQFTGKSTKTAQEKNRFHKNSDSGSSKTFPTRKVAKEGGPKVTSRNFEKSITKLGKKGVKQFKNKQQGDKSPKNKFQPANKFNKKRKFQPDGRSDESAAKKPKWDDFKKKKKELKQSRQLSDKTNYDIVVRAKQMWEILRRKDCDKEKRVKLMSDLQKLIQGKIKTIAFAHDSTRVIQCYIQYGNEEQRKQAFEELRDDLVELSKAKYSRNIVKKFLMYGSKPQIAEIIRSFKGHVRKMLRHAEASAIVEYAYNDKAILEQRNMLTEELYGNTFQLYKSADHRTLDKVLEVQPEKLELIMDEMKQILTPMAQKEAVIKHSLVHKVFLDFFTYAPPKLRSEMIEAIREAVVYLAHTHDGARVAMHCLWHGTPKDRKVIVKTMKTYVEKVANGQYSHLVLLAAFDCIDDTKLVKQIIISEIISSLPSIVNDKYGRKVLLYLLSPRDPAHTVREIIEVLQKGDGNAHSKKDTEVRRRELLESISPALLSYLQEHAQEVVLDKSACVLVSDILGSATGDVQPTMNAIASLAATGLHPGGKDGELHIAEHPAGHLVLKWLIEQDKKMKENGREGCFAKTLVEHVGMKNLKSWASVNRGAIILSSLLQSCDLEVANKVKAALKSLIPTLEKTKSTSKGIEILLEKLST
proteins of U3A human fibrosarcoma cells (4462 proteins detected) (Homo sapiens, UniProt Q8IYB5), sequence (Q8IYB5 whole entry): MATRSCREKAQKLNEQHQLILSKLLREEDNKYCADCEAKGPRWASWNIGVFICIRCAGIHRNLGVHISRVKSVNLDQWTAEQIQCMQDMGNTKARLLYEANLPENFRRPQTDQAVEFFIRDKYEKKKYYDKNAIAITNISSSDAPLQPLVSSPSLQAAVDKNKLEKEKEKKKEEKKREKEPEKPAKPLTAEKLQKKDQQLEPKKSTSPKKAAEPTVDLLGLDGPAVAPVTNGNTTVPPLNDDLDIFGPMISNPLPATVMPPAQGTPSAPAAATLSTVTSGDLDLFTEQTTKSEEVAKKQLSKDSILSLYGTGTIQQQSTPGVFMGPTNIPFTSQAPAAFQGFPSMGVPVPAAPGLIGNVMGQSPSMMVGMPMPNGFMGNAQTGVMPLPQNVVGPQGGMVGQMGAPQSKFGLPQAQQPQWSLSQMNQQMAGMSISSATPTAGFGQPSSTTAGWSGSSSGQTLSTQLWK
proteins of U3A human fibrosarcoma cells (4462 proteins detected) (Homo sapiens, UniProt Q16637), sequence (Q16637 whole entry): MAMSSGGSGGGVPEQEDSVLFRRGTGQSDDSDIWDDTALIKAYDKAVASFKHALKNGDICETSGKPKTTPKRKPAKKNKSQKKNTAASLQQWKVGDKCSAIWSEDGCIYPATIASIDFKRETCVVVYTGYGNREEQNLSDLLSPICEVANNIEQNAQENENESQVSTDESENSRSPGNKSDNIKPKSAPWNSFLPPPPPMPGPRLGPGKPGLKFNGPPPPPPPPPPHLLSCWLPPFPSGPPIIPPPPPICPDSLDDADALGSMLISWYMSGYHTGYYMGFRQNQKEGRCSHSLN
proteins of U3A human fibrosarcoma cells (4462 proteins detected) (Homo sapiens, UniProt Q9P032), sequence (Q9P032 whole entry): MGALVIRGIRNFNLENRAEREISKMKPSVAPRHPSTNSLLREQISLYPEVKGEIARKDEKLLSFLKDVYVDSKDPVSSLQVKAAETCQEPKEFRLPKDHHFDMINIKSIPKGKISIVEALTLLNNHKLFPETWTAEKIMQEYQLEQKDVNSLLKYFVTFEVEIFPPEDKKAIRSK
proteins of U3A human fibrosarcoma cells (4462 proteins detected) (Homo sapiens, UniProt P08582), sequence (P08582 20-738): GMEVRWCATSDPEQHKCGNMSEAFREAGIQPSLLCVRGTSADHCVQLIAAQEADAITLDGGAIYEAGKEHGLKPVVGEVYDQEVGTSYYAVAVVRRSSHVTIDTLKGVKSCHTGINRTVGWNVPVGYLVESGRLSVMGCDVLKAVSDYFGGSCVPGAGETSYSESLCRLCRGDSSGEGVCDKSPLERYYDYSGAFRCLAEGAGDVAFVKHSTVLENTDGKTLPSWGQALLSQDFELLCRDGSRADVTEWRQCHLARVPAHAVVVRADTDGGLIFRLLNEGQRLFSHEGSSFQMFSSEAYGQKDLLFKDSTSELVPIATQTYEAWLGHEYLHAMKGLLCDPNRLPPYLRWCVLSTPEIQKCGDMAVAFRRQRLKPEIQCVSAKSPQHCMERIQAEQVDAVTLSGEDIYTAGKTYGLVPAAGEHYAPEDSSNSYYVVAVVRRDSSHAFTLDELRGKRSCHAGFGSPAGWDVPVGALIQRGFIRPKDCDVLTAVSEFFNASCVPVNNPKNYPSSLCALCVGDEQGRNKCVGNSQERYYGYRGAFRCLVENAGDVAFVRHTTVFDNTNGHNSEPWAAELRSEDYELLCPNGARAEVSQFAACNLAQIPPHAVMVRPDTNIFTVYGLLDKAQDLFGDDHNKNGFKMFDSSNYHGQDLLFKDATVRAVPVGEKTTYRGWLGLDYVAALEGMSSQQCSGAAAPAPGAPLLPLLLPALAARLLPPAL
proteins of U3A human fibrosarcoma cells (4462 proteins detected) (Homo sapiens, UniProt Q9BZJ0), sequence (Q9BZJ0 whole entry): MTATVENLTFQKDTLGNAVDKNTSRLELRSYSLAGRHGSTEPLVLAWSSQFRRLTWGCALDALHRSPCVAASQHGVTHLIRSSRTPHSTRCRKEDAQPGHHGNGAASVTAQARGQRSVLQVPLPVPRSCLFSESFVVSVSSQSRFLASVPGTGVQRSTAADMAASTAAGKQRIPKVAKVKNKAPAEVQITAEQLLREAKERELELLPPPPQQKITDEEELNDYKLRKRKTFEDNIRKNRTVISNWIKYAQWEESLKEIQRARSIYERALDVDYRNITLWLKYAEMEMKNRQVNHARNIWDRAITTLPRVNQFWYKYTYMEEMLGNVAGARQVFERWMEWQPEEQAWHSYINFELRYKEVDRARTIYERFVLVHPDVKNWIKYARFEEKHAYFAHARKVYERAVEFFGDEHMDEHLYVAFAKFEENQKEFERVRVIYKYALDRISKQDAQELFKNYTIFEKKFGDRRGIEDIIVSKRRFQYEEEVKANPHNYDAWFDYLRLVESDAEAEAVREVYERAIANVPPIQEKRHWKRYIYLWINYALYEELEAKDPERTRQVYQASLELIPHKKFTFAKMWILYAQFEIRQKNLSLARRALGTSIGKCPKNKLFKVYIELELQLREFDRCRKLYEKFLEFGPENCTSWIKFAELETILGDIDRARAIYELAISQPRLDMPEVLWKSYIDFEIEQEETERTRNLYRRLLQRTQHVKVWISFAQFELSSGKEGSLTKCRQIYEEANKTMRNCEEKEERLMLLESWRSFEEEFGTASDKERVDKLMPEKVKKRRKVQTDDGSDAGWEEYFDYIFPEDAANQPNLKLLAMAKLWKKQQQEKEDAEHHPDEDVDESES
proteins of U3A human fibrosarcoma cells (4462 proteins detected) (Homo sapiens, UniProt P38919), sequence (P38919 whole entry): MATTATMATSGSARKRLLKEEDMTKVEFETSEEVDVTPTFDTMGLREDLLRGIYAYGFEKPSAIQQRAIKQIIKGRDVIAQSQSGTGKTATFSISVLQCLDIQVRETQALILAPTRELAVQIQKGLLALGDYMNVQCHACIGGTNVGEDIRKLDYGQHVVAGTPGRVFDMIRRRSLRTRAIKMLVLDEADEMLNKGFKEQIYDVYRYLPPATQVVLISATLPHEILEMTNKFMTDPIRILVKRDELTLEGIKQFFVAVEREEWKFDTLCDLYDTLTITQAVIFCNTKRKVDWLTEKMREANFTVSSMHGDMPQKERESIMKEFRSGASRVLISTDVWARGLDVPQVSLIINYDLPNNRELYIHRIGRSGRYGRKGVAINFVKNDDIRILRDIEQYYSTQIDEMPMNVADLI
proteins of U3A human fibrosarcoma cells (4462 proteins detected) (Homo sapiens, UniProt P35232), sequence (P35232 whole entry): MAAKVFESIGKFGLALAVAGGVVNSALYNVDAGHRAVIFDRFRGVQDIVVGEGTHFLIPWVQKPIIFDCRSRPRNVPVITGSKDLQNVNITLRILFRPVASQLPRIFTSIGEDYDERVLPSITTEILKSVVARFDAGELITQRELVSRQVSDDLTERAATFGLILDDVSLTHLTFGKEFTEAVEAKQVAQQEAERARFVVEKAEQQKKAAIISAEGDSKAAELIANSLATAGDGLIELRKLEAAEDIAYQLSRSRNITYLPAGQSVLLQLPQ

CCc1nc(N)nc(N)c1-c1ccc(Cl)cc1 [pyrimethamine]
Log2 (PYR/DMSO), CNOT7 [1]: -0.24
Log2 (PYR/DMSO), STC1 [2]: 0.25
Log2 (PYR/DMSO), MRPL37 [3]: 0.29
Log2 (PYR/DMSO) [4]: 0.15
Log2 (PYR/DMSO), ATP1B3 [5]: 0.27
Log2 (PYR/DMSO) [6]: 0.16
Log2 (PYR/DMSO) [7]: 0.17
Log2 (PYR/DMSO) [8]: -0.04
Log2 (PYR/DMSO) [9]: 0.14
Log2 (PYR/DMSO) [10]: -0.04
Log2 (PYR/DMSO) [11]: 0.19
Log2 (PYR/DMSO) [12]: 0.15
Log2 (PYR/DMSO), SMN1; SMN2 [13]: -0.18
Log2 (PYR/DMSO) [14]: 0.18
Log2 (PYR/DMSO) [15]: 0.13
Log2 (PYR/DMSO) [16]: 0.18
Log2 (PYR/DMSO) [17]: -0.05
Log2 (PYR/DMSO), PHF14 [18]: -0.15
Log2 (PYR/DMSO), PEF1 [19]: 0.24
Log2 (PYR/DMSO) [20]: -0.04
Log2 (PYR/DMSO) [21]: -0.04
Log2 (PYR/DMSO), MPZL1 [22]: 0.25
Log2 (PYR/DMSO), FRYL [23]: 0.28
Log2 (PYR/DMSO) [24]: 0.14
Log2 (PYR/DMSO) [25]: 0.16
Log2 (PYR/DMSO) [26]: 0.15
Log2 (PYR/DMSO), SSFA2 [27]: -0.15
Log2 (PYR/DMSO) [28]: 0.16
Log2 (PYR/DMSO) [29]: 0.20
